Measured values published in ChEMBL document CHEMBL4627246, “Pyroglutamide-Based P2X7 Receptor Antagonists Targeting Inflammatory Bowel Disease” (J Med Chem, 2020).

Columns and labels:
Type in all cases: cell-based
OVCAR-4 = experiment: Cytotoxicity against human OVCAR4 cells assessed as effect on cell growth at 10 uM incubated for 48 hrs by sulforhodamine B assay; details: ovcar-4, 48 h
ACHN = experiment: Cytotoxicity against human ACHN cells assessed as effect on cell growth at 10 uM incubated for 48 hrs by sulforhodamine B assay
T47D = experiment: Cytotoxicity against human T47D cells assessed as effect on cell growth at 10 uM incubated for 48 hrs by sulforhodamine B assay
U-251 = experiment: Cytotoxicity against human U251 cells assessed as effect on cell growth at 10 uM incubated for 48 hrs by sulforhodamine B assay; details: u-251, 48 h
NCI-H460 = experiment: Cytotoxicity against human NCI-H460 cells assessed as effect on cell growth at 10 uM incubated for 48 hrs by sulforhodamine B assay; details: nci-h460, 48 h
OVCAR-3 = experiment: Cytotoxicity against human OVCAR3 cells assessed as effect on cell growth at 10 uM incubated for 48 hrs by sulforhodamine B assay; details: ovcar-3, 48 h
RPMI-8226 = experiment: Cytotoxicity against human RPMI8226 cells assessed as effect on cell growth at 10 uM incubated for 48 hrs by sulforhodamine B assay; details: rpmi-8226, 48 h
HL-60(TB) = experiment: Cytotoxicity against human HL-60(TB) cells assessed as effect on cell growth at 10 uM incubated for 48 hrs by sulforhodamine B assay
LOX IMVI = experiment: Cytotoxicity against human LOXIMVI cells assessed as effect on cell growth at 10 uM incubated for 48 hrs by sulforhodamine B assay
SNB-75 = experiment: Cytotoxicity against human SNB75 cells assessed as effect on cell growth at 10 uM incubated for 48 hrs by sulforhodamine B assay; details: snb-75, 48 h
PC-3 = experiment: Cytotoxicity against human PC3 cells assessed as effect on cell growth at 10 uM incubated for 48 hrs by sulforhodamine B assay; details: pc-3, 48 h
MDA-MB-468 = experiment: Cytotoxicity against human MDA-MB-468 cells assessed as effect on cell growth at 10 uM incubated for 48 hrs by sulforhodamine B assay; details: mda-mb-468, 48 h
UACC-257 = experiment: Cytotoxicity against human UACC257 cells assessed as effect on cell growth at 10 uM incubated for 48 hrs by sulforhodamine B assay; details: uacc-257, 48 h
Malme-3M = experiment: Cytotoxicity against human MALME-3M cells assessed as effect on cell growth at 10 uM incubated for 48 hrs by sulforhodamine B assay
KM12 = experiment: Cytotoxicity against human KM12 cells assessed as effect on cell growth at 10 uM incubated for 48 hrs by sulforhodamine B assay; details: km12, 48 h
HCT-116 = experiment: Cytotoxicity against human HCT116 cells assessed as effect on cell growth at 10 uM incubated for 48 hrs by sulforhodamine B assay; details: hct-116, 48 h
IGROV-1 = experiment: Cytotoxicity against human IGROV1 cells assessed as effect on cell growth at 10 uM incubated for 48 hrs by sulforhodamine B assay; details: igrov-1, 48 h
SF-295 = experiment: Cytotoxicity against human SF295 cells assessed as effect on cell growth at 10 uM incubated for 48 hrs by sulforhodamine B assay; details: sf-295, 48 h
NCI/ADR-RES = experiment: Cytotoxicity against human NCI/ADR-RES cells assessed as effect on cell growth at 10 uM incubated for 48 hrs by sulforhodamine B assay
CCRF-CEM = experiment: Cytotoxicity against human CCRF-CEM cells assessed as effect on cell growth at 10 uM incubated for 48 hrs by sulforhodamine B assay

Measured: Activity

COc1ccc(CN2C(=O)CC[C@H]2C(=O)NCCc2ccccc2)cc1
Non-Toxic: all assays above

Cc1ccc(NC(=O)[C@@H]2CCC(=O)N2c2ccccc2)cc1
Non-Toxic: all assays above

CN(C)/C=C1\C[C@@H](C(=O)NCc2ccc(Cl)cc2Cl)N(c2cccs2)C1=O
Non-Toxic: all assays above

O=C1N[C@H](C(=O)NCc2ccc(Cl)cc2Cl)C/C1=C/NCc1ccc(Cl)cc1Cl
Non-Toxic: all assays above

O=C(NCc1ccc(Cl)cc1Cl)[C@@H]1CCC(=O)N1C(c1ccccc1)c1ccccc1
Non-Toxic: all assays above

CN1C(=O)CC[C@H]1C(=O)NCc1cc(C(F)(F)F)ccc1Cl
Non-Toxic: all assays above

CN(C)/C=C1\C[C@H]2C(=O)N(Cc3ccccc3Cl)C(N(C)C)N2C1=O (stereo not given in full)
Non-Toxic: all assays above

COc1ccc(CNC(=O)[C@@H]2CCC(=O)N2Cc2ccc(Cl)cc2Cl)c(OC)c1
Non-Toxic: all assays above

O=C(NCc1ccccc1Cl)[C@@H]1CCC(=O)N1Cc1ccccc1Cl
Non-Toxic: all assays above
